Like-named read-outs stand apart in the source and are kept apart here.
Columns and labels:
[1] = tested on: HUVEC cells; experiment: EF-induced reorientation of endothelial cells, drug inhibition (orientation index Oi); type: cell-based
Description: HUVEC cells were seeded in a trough formed by two parallel (1 cm apart) strips of glass coverslip (No. 1, length of 22 mm) fixed to the base of the dish with silicone grease. Scratch lines were made perpendicular to the long axis of the chamber with a fine sterile needle and used as reference marks for directed cell migration. Cells were incubated for 24-48 hours (37° C., 5% CO2) before a roof coverslip was applied and sealed with silicone grease. The final dimensions of the chamber, through which current was passed, were 22×10×0.2 mm. Agar-salt bridges not less than 15 cm long were used to connect silver/silver-chloride electrodes in beakers of Steinberg's solution (58 mM NaCl, 0.67 mM KCl, 0.44 mM Ca(NO3)2, 1.3 mM MgSO4, 4.6 mM Trizma base, pH 7.8-8.0), to pools of excess culture medium at either side of the chamber. Field strengths were measured directly at the beginning of, the end of and during each experiment. No fluctuations in field strength were observed. […] The same concentration of drug was present during EF (electric field) exposure in a CO2 incubator.
A series of images was taken with an image analyser immediately before EF exposure and at 4, 8 and 24 hours of EF exposure. Cell orientation was quantified as an orientation index (Oi), which is defined as Oi=cos 2(α), where α is the angle formed by the long axis of a cell with a line drawn perpendicular to the field lines. A cell with its long axis parallel to the vector of the EF will have an Oi of −1, and a cell with its long axis exactly perpendicular to the EF vector will have an Oi of +1. A randomly oriented population of cells will have an average Oi {defined as [Σn cos 2(α)]÷n} of 0. The significance of this two-dimensional orientation distribution against randomness was calculated using Rayleigh's distribution. A long:short axis ratio was calculated for assessment of elongation.

[2] = tested on: HUVEC cells; experiment: EF-induced elongation of endothelial cells, drug inhibition (long:short axis ratio); type: cell-based; details: for long:short axis ratio / long axis in EF-treated cells: drug 50 μM
Description: HUVEC cells were seeded in a trough formed by two parallel (1 cm apart) strips of glass coverslip (No. 1, length of 22 mm) fixed to the base of the dish with silicone grease. Scratch lines were made perpendicular to the long axis of the chamber with a fine sterile needle and used as reference marks for directed cell migration. Cells were incubated for 24-48 hours (37° C., 5% CO2) before a roof coverslip was applied and sealed with silicone grease. The final dimensions of the chamber, through which current was passed, were 22×10×0.2 mm. Agar-salt bridges not less than 15 cm long were used to connect silver/silver-chloride electrodes in beakers of Steinberg's solution (58 mM NaCl, 0.67 mM KCl, 0.44 mM Ca(NO3)2, 1.3 mM MgSO4, 4.6 mM Trizma base, pH 7.8-8.0), to pools of excess culture medium at either side of the chamber. Field strengths were measured directly at the beginning of, the end of and during each experiment. No fluctuations in field strength were observed. […] (50 μM), the Rho kinase inhibitor Y27632 (50 μM), both Akt and Rho kinase inhibitors (10 μM each) or latrunculin (50 nM) for 1 hour before EF stimulation. The same concentration of drug was present during EF (electric field) exposure in a CO2 incubator.
A series of images was taken with an image analyser immediately before EF exposure and at 4, 8 and 24 hours of EF exposure. Cell orientation was quantified as an orientation index (Oi), which is defined as Oi=cos 2(α), where α is the angle formed by the long axis of a cell with a line drawn perpendicular to the field lines. A cell with its long axis parallel to the vector of the EF will have an Oi of −1, and a cell with its long axis exactly perpendicular to the EF vector will have an Oi of +1. […] The significance of this two-dimensional orientation distribution against randomness was calculated using Rayleigh's distribution. A long:short axis ratio was calculated for assessment of elongation.
HUVEC cells elongated dramatically in an EF. […] We quantified the elongation of the cells using a long:short axis ratio. […]

[3] = drug 50 μM, 1 hour before and during EF

For `C/C1=C/C(=O)O[C@@H]2C[C@@H](CC[C@H](C)/C=C\C=C\CC1)O[C@@](O)([C@@H]1CSC(=O)N1)C2` [Latrunculin A], the “orientation response in EF” value ([1]; latrunculin 50 nM) was “suppressed the orientation response significantly” and the EF-induced elongation response ([2]; latrunculin 50 nM) was “completely abolished”.

With “1-L-6-hydroxymethyl-chiro-inositol 2-[(R)-2-O-methyl-3-O-octadecylcarbonate] [Akt inhibitor]” the “reorientation / orientation response of cells in an EF” value (“reorientation / orientation response” for short) [1, 3] was “significantly decreased” and the “long:short axis ratio / long axis in EF-treated cells” value [2] was “significantly decreased”.

`COc1cc2ncnc(Nc3ccc(Cl)cc3F)c2cc1OC` [VEGFR inhibitor, 4-[(4′-chloro-2′-fluoro)phenylamino]-6,7-dimethoxyquinazoline] was tested, and the “reorientation / orientation response” value [1, 3] was “completely abolished”.

`N#CC(=C(/N)Sc1ccccc1N)/C(C#N)=C(\N)Sc1ccccc1N` [U0126] was tested, and the “orientation index Oi” value [1] was 0.33±0.03 and the “reorientation / orientation response” value [1] was “decreased the orientation to a similar extent”.

`C[C@@H](N)[C@H]1CC[C@H](C(=O)Nc2ccncc2)CC1` [Y27632] was tested, and the “orientation index Oi” value ([1]; 10 μM) was 0.55±0.05, the “orientation response in EF” value ([1]; 10 μM, 20 μM and 50 μM) was “decreased the orientation response significantly” and the “orientation index Oi” value ([1]; 20 μM) was 0.45±0.05. For the same compound, the “orientation index Oi” value ([1]; 50 μM) was 0.24±0.05 and the “long:short axis ratio / long axis in EF-treated cells” value [2] was “significantly decreased”.

Reference: patent US20170128720A1, “METHODS AND DEVICES FOR MODULATING GENE EXPRESSION AND ENZYME ACTIVITY” (VOMARIS INNOVATIONS, INC, priority 2014, published 2017)
